Laboratory results from patent US12378249B2, “Isoquinoline compounds and uses thereof” (Genentech, Inc., priority 2018, dated 2025).

Biological target: HPK1 (Homo sapiens (Human), UniProt Q92918, S171E/T165E)
Assay: HPK1-FL HTRF Enzymatic Assay (HTRF)
Assay type: biochemical
Conditions: HPK full length T165E S171E 0.125 nM, ATP 1 mM, Biotin-SLP76 100 nM, read-out: HPK1 Ki (nM), H = HTRF
Summary of the method: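 Full-length HPK1 double mutant, preincubated 30 min with compound, then phosphorylates Biotin-SLP-76 at 1 mM ATP for 60 min in HEPES pH 7.5/MgCl2/TCEP/Brij-35 buffer. Phospho-product detected by TR-FRET (Eu-anti-pSLP76, SA-XL665) after 60 min; 665/620 ratio gives % activity, from which Ki is determined.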

Chain of HPK1 (Q92918 whole entry T165E/S171E): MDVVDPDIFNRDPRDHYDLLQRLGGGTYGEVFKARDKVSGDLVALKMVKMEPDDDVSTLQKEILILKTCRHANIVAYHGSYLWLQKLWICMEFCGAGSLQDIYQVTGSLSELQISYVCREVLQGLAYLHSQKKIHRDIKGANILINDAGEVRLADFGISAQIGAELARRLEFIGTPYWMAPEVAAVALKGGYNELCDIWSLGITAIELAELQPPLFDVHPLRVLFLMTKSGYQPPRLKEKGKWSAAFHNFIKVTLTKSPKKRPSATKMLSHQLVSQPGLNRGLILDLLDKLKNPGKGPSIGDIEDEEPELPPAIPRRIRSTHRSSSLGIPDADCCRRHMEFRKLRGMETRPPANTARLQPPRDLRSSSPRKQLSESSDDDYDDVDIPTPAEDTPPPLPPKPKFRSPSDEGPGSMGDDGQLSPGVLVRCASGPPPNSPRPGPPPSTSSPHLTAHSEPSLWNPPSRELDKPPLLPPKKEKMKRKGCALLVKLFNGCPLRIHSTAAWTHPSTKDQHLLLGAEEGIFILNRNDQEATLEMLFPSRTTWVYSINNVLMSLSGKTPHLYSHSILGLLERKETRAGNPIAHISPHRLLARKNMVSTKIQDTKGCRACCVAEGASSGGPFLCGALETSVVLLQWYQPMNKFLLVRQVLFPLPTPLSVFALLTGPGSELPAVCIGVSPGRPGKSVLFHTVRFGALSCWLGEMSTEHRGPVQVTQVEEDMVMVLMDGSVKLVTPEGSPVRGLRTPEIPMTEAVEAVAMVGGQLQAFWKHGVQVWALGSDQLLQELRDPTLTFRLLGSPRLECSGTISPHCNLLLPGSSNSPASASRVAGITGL

Row | Ki [nM] | Compound
1 | 0.013 | Cc1c(N)cncc1-c1cc2cc(Nc3cc4n(n3)Cc3ncc(C)n3CC4)ncc2cc1F [Compound 163, N-(6-(5-amino-4-methylpyridin-3-yl)-7-fluoroisoquinolin-3-yl)-3-methyl-5,6-dihydro-11H-imidazo[1,2-a]pyrazolo[1,5-d][1,4]diazepin-8-amine]
2 | 0.013 | Cc1c(N)cncc1-c1cc2cc(Nc3cc4n(n3)CC(=O)N(CCN3CC(F)C3)CC4)ncc2cc1F [Compound 164, 2-((6-(5-amino-4-methylpyridin-3-yl)-7-fluoroisoquinolin-3-yl)amino)-6-(2-(3-fluoroazetidin-1-yl)ethyl)-5,6-dihydro-4H-pyrazolo[1,5-d][1,4]diazepin-7(8H)-one]
3 | 0.12 | Cc1c(N)cncc1-c1cc2cc(Nc3cc4n(n3)CC3=NOC(C)(C)N3CC4)ncc2cc1F [Compound 166, N-(6-(5-amino-4-methylpyridin-3-yl)-7-fluoroisoquinolin-3-yl)-3,3-dimethyl-5,6-dihydro-3H,11H-[1,2,4]oxadiazolo[4,3-a]pyrazolo[1,5-d][1,4]diazepin-8-amine]
4 | 0.028 | Cc1c(N)cncc1-c1cc(F)c2cnc(Nc3cc4n(n3)Cc3nccn3CC4)cc2c1 [Compound 168, N-(6-(5-amino-4-methylpyridin-3-yl)-8-fluoroisoquinolin-3-yl)-5,6-dihydro-1I1H-imidazo[1,2-a]pyrazolo[1,5-d][1,4]diazepin-8-amine]
5 | 0.39 | Cc1c(N)cncc1-c1cc2cc(Nc3cc4n(n3)CC(=O)N(C(C)C)CC4)ncc2cc1C#N [Compound 169, 6-(5-amino-4-methylpyridin-3-yl)-3-((6-isopropyl-7-oxo-5,6,7,8-tetrahydro-4H-pyrazolo[1,5-d][1,4]diazepin-2-yl)amino)isoquinoline-7-carbonitrile]
6 | 1.78 | CC(=O)Nc1cncc(-c2cc3cc(Nc4cc5n(n4)CC(=O)N(C)CC5)ncc3cc2F)c1C [Compound 171, N-(5-(7-fluoro-3-((6-methyl-7-oxo-5,6,7,8-tetrahydro-4H-pyrazolo[1,5-d][1,4]diazepin-2-yl)amino)isoquinolin-6-yl)-4-methylpyridin-3-yl)acetamide]
7 | 0.46 | Cc1c(NS(C)(=O)=O)cncc1-c1cc2cc(Nc3cc4n(n3)CC(=O)N(C)CC4)ncc2cc1F [Compound 172, N-(5-(7-fluoro-3-((6-methyl-7-oxo-5,6,7,8-tetrahydro-4H-pyrazolo[1,5-d][1,4]diazepin-2-yl)amino)isoquinolin-6-yl)-4-methylpyridin-3-yl)methanesulfonamide]
8 | 0.026 | Cc1c(-c2ccc3cnc(Nc4cc5n(n4)CC(=O)N(C)CC5)cc3c2F)cnc2c1NCCO2 [Compound 174, 2-((5-fluoro-6-(8-methyl-2,3-dihydro-1H-pyrido[2,3-b][1,4]oxazin-7-yl)isoquinolin-3-yl)amino)-6-methyl-5,6-dihydro-4H-pyrazolo[1,5-d][1,4]diazepin-7(8H)-one]
9 | 0.14 | Cc1c(-c2cc3cc(Nc4cc5n(n4)CC(=O)N(C)CC5)ncc3cc2F)cnc2nc[nH]c12 [Compound 175, 2-((7-fluoro-6-(7-methyl-1H-imidazo[4,5-b]pyridin-6-yl)isoquinolin-3-yl)amino)-6-methyl-5,6-dihydro-4H-pyrazolo[1,5-d][1,4]diazepin-7(8H)-one]
10 | 0.161 | Cc1c(-c2cc3cc(Nc4cc5n(n4)CC(=O)NCC5)ncc3cc2F)cnc2c1NCC(F)(F)O2 [Compound 176, 2-((6-(3,3-difluoro-8-methyl-2,3-dihydro-1H-pyrido[2,3-b][1,4]oxazin-7-yl)-7-fluoroisoquinolin-3-yl)amino)-5,6-dihydro-4H-pyrazolo[1,5-d][1,4]diazepin-7(8H)-one]
11 | 0.277 | Cc1c(-c2cc3cc(Nc4cc5n(n4)CC(=O)N(C)CC5)ncc3cc2F)cnc2c1NCCS2(=O)=O [Compound 177, 2-((7-fluoro-6-(8-methyl-4,4-dioxido-2,3-dihydro-1H-pyrido[2,3-b][1,4]thiazin-7-yl)isoquinolin-3-yl)amino)-6-methyl-5,6-dihydro-4H-pyrazolo[1,5-d][1,4]diazepin-7(8H)-one]
